Results published in article PMC9530166, “Allosteric regulation of glycogen breakdown by the second messenger cyclic di-GMP” (Nature Communications, 2022).
Entries after “also recorded” stand apart in the source; their conditions may differ.

Columns and labels:
His6-GlgXDLVR(212-215) = assay: nanoDSF thermal shift assay, RLVD212-215 swap mutant; type: binding, Streptomyces venezuelae; settings: His6-GlgXDLVR(212-215) mutant
Description: Arginine and aspartic acid arranged in an RxxD motif are often found as c-di-GMP binding signatures in effector proteins[28],[34]. […] To determine if either of these motifs are involved in c-di-GMP binding, we swapped the arginine and aspartic acid residues in the two motifs and purified His6-GlgXDETR(49-52) and His6-GlgXDLVR(212-215).
For label-free thermal shift assay experiments, 10 μM purified protein in 25 mM Tris pH 8, 150 mM NaCl, 2.5% (v/v) glycerol, and 5 mM MgCl2 was incubated without or with (1 mM) of nonlabeled c-di-GMP or c-di-AMP, respectively, at rt for 10 min. Reactions were subsequently analyzed in a Tycho NT.6 (NanoTemper Technologies) device with a 30 K/min thermal ramp and the internal fluorescence at 330 and 350 nm was recorded. Data analysis and calculation of derivatives was done using the internal evaluation features of the Tycho instrument.
217 Supplementary Fig. 5: NanoDSF assays with mutagenized His6-GlgX variants. (a) Swap of the
219 This was confirmed by DRaCALA, right. For DRaCALA assays, 15 µg of purified E. coli His6-GlgX
220 or His6-Vnz25270, respectively, were mixed with 0.5 µl of [32P]-c-di-GMP (Hartmann Analytic
221 GmbH, Braunschweig) in binding buffer (25 mM Tris pH 8.0, 150 mM NaCl, 2.5% (v/v) glycerol
222 and 5 mM MgCl2). […]
223 air dried for 10 min and analyzed by phosphorimaging. […]

His6-GlgXE378A = assay: BCA reducing-end enzyme assay, GlgXE378A; type: biochemical, Streptomyces venezuelae; settings: 50 µM c-di-GMP, 0.05% glycogen from rabbit, 1 µM enzyme
Description: Fig. 2 c-di-GMP stimulates glycogen breakdown activity of GlgX in vitro. a Bicinchoninic acid (BCA) in vitro enzyme assay. The purple copper bicinchoninate complex indicating GlgX-mediated generation of reducing ends in glycogen was quantified by photometric measurements at 562 nm. A562 values were converted into reducing ends [µM glucose equivalents] based on D-glucose as a standard. Reactions contained 0.05% (w/v) glycogen from rabbit, 1 µM GlgX and increasing concentrations of c-di-GMP (0–100 µM). Source data are provided as a Source data file. b BCA assay containing 0.05% of either glycogen from rabbit, pullulan, amylopectin from maize or amylose from potato as substrates. Where appropriate, 1 µM GlgX or 50 µM c-di-GMP were added to the reaction samples. Source data are provided as a Source data file. c BCA assay as in a with or without c-di-GMP (50 µM), 0.05% glycogen from rabbit (S) and 1 µM Vnz25270, GlgX, the active site mutants GlgXD342A, GlgXE378A, GlgXD342A+E378A, or the c-di-GMP-binding mutant variant GlgXDETR49-52 as indicated. […]
Hydrolysis of carbohydrates was assessed in vitro by measuring the accumulation of reducing sugar ends using the BCA assay[42] and D-glucose as a standard for calibration (Supplementary Fig. 11). […] 125 μl sample aliquots were transferred in duplicates to a 96 well plate and the absorbance at 562 nm was measured using a plate reader.

Nc1nc2c(ncn2[C@@H]2O[C@@H]3CO[P@](=O)(O)O[C@H]4[C@@H](O)[C@H](n5cnc6c(=O)[nH]c(N)nc65)O[C@@H]4CO[P@](=O)(O)O[C@H]3[C@H]2O)c(=O)[nH]1 [c-di-GMP, bis-(3′−5′)-cyclic diguanosine monophosphate]
shift in melting/unfolding temperature by c-di-GMP (His6-GlgXDLVR(212-215)): still allows ligand binding; also recorded: still caused a shift | stimulation of enzyme activity by c-di-GMP (His6-GlgXE378A): could not be stimulated
